# Species: Rattus norvegicus
# Test: Open TG-GATES - Regimen: Single
# Type: toxicity, organism-based, Sprague-Dawley
# Parameters: regimen Single, gender Male, age 6 weeks
# Settings: in vivo, po, 6 mg/kg, route gavage, dose level High; for APTT / Bas / Eos / Fbg / Hb / Ht / Lym / MCH / MCHC / MCV / Mono / Neu / PT / Plat / RBC / Ret / WBC: tissue Blood; for KIDNEY_L / KIDNEY_R / KIDNEY_TOTAL: tissue Kidney; for LIVER: tissue Liver; for A/G / ALP / ALT / AST / BUN / CRE / Ca / Cl / DBIL / GLC / IP / K / LDH / Na / PL / RALB / TBIL / TC / TG / TP / gamma-GTP: tissue Plasma
structure (smiles),measurement,setting,value
O=NN(CCCl)C(=O)NC1CCCCC1 [LOMUSTINE],TERMINAL_BW,3 h,203.9 g
same,APTT,3 h,16.2 s
same,Bas,3 h,0%
same,Eos,3 h,0.4%
same,Fbg,3 h,212.6 mg/dL
same,Hb,3 h,13.3 g/dL
same,Ht,3 h,39.7%
same,Lym,3 h,78.2%
same,MCH,3 h,21.7 pg
same,MCHC,3 h,33.4%
same,MCV,3 h,64.8 fL
same,Mono,3 h,9.4%
same,Neu,3 h,12.2%
same,PT,3 h,11.4 s
same,Plat,3 h,106.7 x10_4/uL
same,RBC,3 h,612.4 x10_4/ul
same,Ret,3 h,8.5%
same,WBC,3 h,112.2 x10_2/uL
same,KIDNEY_L,3 h,0.9 g
same,KIDNEY_R,3 h,0.9 g
same,KIDNEY_TOTAL,3 h,1.9 g
same,LIVER,3 h,10 g
same,A/G,3 h,1.8
same,ALP,3 h,970.2 IU/L
same,ALT,3 h,36.6 IU/L
same,AST,3 h,67.6 IU/L
same,BUN,3 h,13.8 mg/dL
same,CRE,3 h,0.5 mg/dL
same,Ca,3 h,11.3 mg/dL
same,Cl,3 h,105.4 meq/L
same,DBIL,3 h,0.028 mg/dL
same,GLC,3 h,189.6 mg/dL
same,IP,3 h,10.3 mg/dL
same,K,3 h,4.7 meq/L
same,LDH,3 h,161 IU/L
same,Na,3 h,140.4 meq/L
same,PL,3 h,134 mg/dL
same,RALB,3 h,3.6 g/dL
same,TBIL,3 h,0.3 mg/dL
same,TC,3 h,73.8 mg/dL
same,TG,3 h,56.2 mg/dL
same,TP,3 h,5.6 g/dL
same,gamma-GTP,3 h,1.6 IU/L
same,TERMINAL_BW,6 h,201.4 g
same,APTT,6 h,16.7 s
same,Bas,6 h,0%
same,Eos,6 h,0.4%
same,Fbg,6 h,217.8 mg/dL
same,Hb,6 h,13.1 g/dL
same,Ht,6 h,39.4%
same,Lym,6 h,78.6%
same,MCH,6 h,22.2 pg
same,MCHC,6 h,33.3%
same,MCV,6 h,66.7 fL
same,Mono,6 h,7.6%
same,Neu,6 h,13.6%
same,PT,6 h,12.1 s
same,Plat,6 h,108.1 x10_4/uL
same,RBC,6 h,591.6 x10_4/ul
same,Ret,6 h,8.9%
same,WBC,6 h,107.2 x10_2/uL
same,KIDNEY_L,6 h,0.9 g
same,KIDNEY_R,6 h,0.9 g
same,KIDNEY_TOTAL,6 h,1.9 g
same,LIVER,6 h,9.1 g
same,A/G,6 h,1.9
same,ALP,6 h,865 IU/L
same,ALT,6 h,29.4 IU/L
same,AST,6 h,66.2 IU/L
same,BUN,6 h,10.4 mg/dL
same,CRE,6 h,0.5 mg/dL
same,Ca,6 h,11 mg/dL
same,Cl,6 h,104.8 meq/L
same,DBIL,6 h,0.008 mg/dL
same,GLC,6 h,191.8 mg/dL
same,IP,6 h,10.5 mg/dL
same,K,6 h,4.7 meq/L
same,LDH,6 h,152.6 IU/L
same,Na,6 h,139.4 meq/L
same,PL,6 h,132.2 mg/dL
same,RALB,6 h,3.6 g/dL
same,TBIL,6 h,0.3 mg/dL
same,TC,6 h,76 mg/dL
same,TG,6 h,36.6 mg/dL
same,TP,6 h,5.6 g/dL
same,gamma-GTP,6 h,1.8 IU/L

# — ChEMBL document CHEMBL3885861, “Open TG-GATES”
